Converted amounts (≈) assume the structure as drawn.
Experiments:
Type in all cases: functional, cell-based
[1] = Cytotoxicity against vincristine-resistant human KB/VJ300 cells
[2] = Cytotoxicity against vincristine-resistant human KB/VJ300 cells in presence of vincristine
KB = assay: Cytotoxicity against vincristine-sensitive human KB cells

SMILES	IC50 [1] [µg/mL]	IC50 [2] [µg/mL]	IC50 (KB) [µg/mL]
CC[C@H]1CN(C)[C@H]2Cc3c([nH]c4ccccc34)C(=O)C[C@H]1[C@@H]2C(=O)OC	> 25	> 25	> 25
C/C=C1\CN2CC[C@@]3(C(=O)Nc4ccccc43)[C@@H]2C[C@H]1C[C@@H]1NCCc2c1[nH]c1ccccc21	> 25	8.4	20 (≈ 44.2 µM)
CC[C@@H]1CN(C)[C@H]2Cc3c([nH]c4ccccc34)C(=O)C[C@H]1[C@H]2C(=O)OC	> 25	9.4	5.5 (≈ 15.5 µM)
C/C=C1/CN(C)[C@H]2Cc3c([nH]c4ccccc34)C(=O)C[C@H]1[C@@H]2C(=O)OC [VOBASINE]	> 25	> 25	> 25
COC(=O)[C@@H]1[C@@H]2CC(=O)c3[nH]c4ccccc4c3C[C@@H]1N(C)C=C2C=O	> 25	> 25	5.1 (≈ 14.5 µM)
COC(=O)[C@H]1[C@@H]2CC(=O)c3[nH]c4ccccc4c3C[C@@H]1N(C)C=C2C(C)=O	> 25	> 25	> 25
COC(=O)[C@H]1[C@@H]2CC(=O)c3[nH]c4ccccc4c3C[C@@H]1N(C)C=C2C=O	> 25	> 25	> 25
CCC1=CN(C)[C@H]2Cc3c([nH]c4ccccc34)C(=O)C[C@H]1[C@@H]2C(=O)OC	> 25	> 25	18.9 (≈ 53.6 µM)
C/C=C1/CN(C)[C@H]2Cc3c([nH]c4ccccc34)C(=O)C[C@H]1[C@H]2C(=O)OC	22 (≈ 62.4 µM)	13.5	5.6 (≈ 15.9 µM)
CC[C@]1(O)C[C@H]2CN(CCc3c([nH]c4ccccc34)[C@@](C(=O)OC)(c3cc4c(cc3OC)N(C=O)[C@H]3[C@@](O)(C(=O)OC)[C@H](OC(C)=O)[C@]5(CC)C=CCN6CC[C@]43[C@@H]65)C2)C1 [VINCRISTINE]	5.4 (≈ 6.55 µM)		0.007 (≈ 0.00849 µM)
COC(=O)[C@@H]1[C@@H]2Cc3c([nH]c4ccccc34)C(=O)C[C@@H]1[C@@]1(CN2C)O[C@H]1C	> 25	> 25	5.7 (≈ 15.5 µM)
CC[C@@H]1CN(C)[C@H]2Cc3c([nH]c4ccccc34)C(=O)C[C@@H]1[C@H]2C(=O)OC [TABERNAEMONTANINE]	> 25	> 25	> 25

Reference: ChEMBL document CHEMBL3352798, “Cytotoxic vobasine, tacaman, and corynanthe-tryptamine bisindole alkaloids from Tabernaemontana and structure revision of tronoharine” (J Nat Prod, 2014)
